Source: paper PMC9814590, “Precise heteroatom doping determines aqueous solubility and self-assembly behaviors for polycyclic aromatic skeletons” (Communications Chemistry, 2022)
≈ marks a conversion by molar mass, not a printed value.

Assays:
[1] = parameters: method as in hazardous substances data bank; conditions: 25 °C; ref hazardous substances data bank; cited from earlier work
[2] = AFM measurement of nanoparticles in wet conditions; type: physicochemical; conditions: aqueous solution 1.5 mM on mica
Method: To further confirm the aggregation-induced nanoparticles formed in water, we carried out atomic force microscope (AFM) measurement of C10-C12 in wet conditions[35] (Fig. 2c and Supplementary Figs. 29–31). Typically, a drop of aqueous solution of C11 (1.5 mM) was cast on a freshly cleaved mica surface and subjected to test. […] 2D and 3D height profiles gave a particle size around 8 nm.

[3] = Hansen solubility parameters (HSP) from rated solvent library, optimized in HSPiP; Ra and RED versus water; type: physicochemical
From the text: To figure out why the doped N/O heteroatoms on the aromatic skeletons can both influence their hydrophilicity and aqueous solubility, we employed the Hansen solubility parameters (HSP) to interpret this phenomenon. This method developed by Charles Hansen et al.[30] has found broad use both in academia and industry for predicting the compatibility or affinity between two substances[31]–[34]. The key elements of HSP approach are three partial solubility parameters consisting of δD, δP, and δH, in which δD represents the dispersion solubility parameter, δP represents the polar solubility parameter, and δH represents the hydrogen bonding solubility parameter, respectively.
The three partial parameters define a three-dimensional coordinate for substances in a virtual solubility space (Hanse space). In principle, the closer the two coordinates of HSP are, the more likely the substances will dissolve in each other, which is consistent with the notion of “like dissolves like” rule. To better describe the degree of closeness, another solubility parameter “distance” (Ra) is introduced as follows:1 Ra2=4(δD2−δD1)^2+(δP2−δP1)^2+(δH2−δH1)^2 […]
Meanwhile, each substance has an intrinsic distance parameter R0, together with HSP as a center point that would define a solubility sphere in Hansen space. If the HSP coordinate of one substance is located inside the sphere of another substance, it indicates a high affinity between them. For solute and solvent cases, a dissolution process may happen. Otherwise, a low affinity is inferred if one substance is excluded from the sphere of another.
The total HSP data set of C1-C12 was experimentally tested and optimized from a combination of solvents library and listed in Table 1 (Supplementary Methods 1.3, Supplementary Fig. 1). […] For the unique H2O, there are three sets of HSP for different conditions. The first is the HSP of single-molecule (pure) water (15.5, 16.0, 42.3), in which the δH is more salient than δD and δP, it well explains the strong hydrogen bonding interactions between water molecules. However, its use in the prediction of solubility in water is not deemed appropriate in most cases. The second and third sets of HSP for water are those derived from solubility data and should be chosen case by case. The second set of HSP (15.1, 20.4, 16.5) was derived from experimental data set exceeding 1% soluble compounds in water, which may be appropriate for the diluted solute case (denoted as Water1). The third set of HSP (18.1, 17.1, 16.9) was derived from experimental data set of complete miscible compounds with water, which may be appropriate for the dense solute case (denoted as Water2).
1.3 Determination of solubility-related parameters […]
(2) Determination of Hansen solubility parameters (HSP)3
A collection of solvents was used to estimate the HSPs values of C2–C12, which includes dichloromethane, chloroform, toluene, diethyl ether, hexane, dioxane, pyridine, tetrahydrofuran, dimethyl sulfoxide, N, N-dimethyl formamide, acetone, acetonitrile, methanol and ethanol. If the specific solvent (0.5 mL) can dissolve at least 1.0 mg of certain solute would be rated as good solvent, otherwise as bad solvent. For C1, it’s expected that this molecule can only dissolve in nonpolar solvents (recrystallized from CCl4 according to literature report). We […]
methanol, ethanol and water would be bad solvents. These rated solvent s datasets for C1–C12 were imported to HSPiP software that developed by Dr. Hansen, Abbott and Hiroshi to optimize and obtain three partial HSPs values.

[4] = Shake-flask thermodynamic aqueous solubility (1H NMR quantification); type: physicochemical; conditions: water, thermodynamic from solid, D2O, room temperature, 24 h
From the text: (§1) With the 12 combinatorial molecules in hand, we initially examined their hydrophilicity and aqueous solubility. The water-contact angle test gave a clear hydrophilic assessment for these molecules (Table 1 and Supplementary Table 1). The conventional shake-flask method was employed to obtain the thermodynamic aqueous solubility data[29]. […]. In pursuit of both improving the hydrophilicity and aqueous solubility, we planned to introduce dual N/O heteroatoms to C1 skeleton as listed in group 2. […]. The turning point comes to C9 that doping two N atoms on the phenanthrene subcomponent besides the oxazole part. A water contact angle of 0° indicates the high hydrophilicity of C9. […].
1.3 Determination of solubility-related parameters
(1) Measurement of aqueous solubility
We applied the classic shake-flask method to determine the solubility data of C2–C12 in water. Typically, an excess amount of C2 was added to 1.0 mL of D2O, and the mixture was stirred at room temperature for 24 h. After that, the phase separation of saturated solution was finished through centrifugation. 1H NMR technology was applied to quantitatively analysis the concentration of solute using tetrahydrofuran as internal standard. Actually, we didn’t synthesize C1 to obtain its solubility data from experimental method because it’s obvious that this compound would be insoluble in water from reasonable judgement. Alternatively, due to its high hydrophobicity and measured water solubility data from C2–C8 counterpart, we can estimate this value must be at least lower than 0.1 mg / mL as well. […]

[5] = Kinetic radii from DOSY NMR (Stokes-Einstein equation); type: physicochemical
Water-contact angle test = type: physicochemical; conditions: C2-C12
From the text: as §1
Supplementary Table 1. Collected water contact angles for C2 – C12 […]

[6] = Apparent association constants by 1H NMR shift analysis (dimeric model); type: physicochemical
From the text: As is known, high concentration as a driving force to promote the molecular aggregation in solution is ubiquitous and well recognized[37],[38]. To compare the high concentration induced aggregation phenomenon with our case, we measured their apparent association constants (Ka) by ^1H NMR shift analysis after simplifying the aggregates to a dimeric model[39] (Supplementary Figs. 17–28). As listed in Fig. 3b, C10-C12 in chloroform display relatively weak association ability induced by high concentration factor. […] Meanwhile, the ^13C NMR spectra gave more informative details about C10-C12 in different existing states (Fig. 3c, Supplementary Figs. 13 and 14). […] In comparison, these signals became broadened and moved to upfield with a maximal 3.19 ppm shift in D2O conditions, which was almost in consistent with the solid-state ^13C magic-angle spinning (MAS) NMR spectrum despite its much broader signature. Moreover, the luminescent emissions of C10-C12 in various solvent ratios and solid-state were also screened (Fig. 3d, Supplementary Figs. 33 and 34). […] Unexpectedly, the maximal emissions in water are close to the solid state of C10-C12 (e.g., 472 nm in water versus 486 nm in solid for C10), indicative of a homologous excited-state energy transfer pathway.

[7] = experimentally rated solvent library, HSPiP

Structure (SMILES) | Aqueous solubility [1] | average diameter of nanoparticles (AFM statistical analysis) [2] | Water2 Ra ([3]; distance to water HSP of dense condition (18.1, 17.1, 16.9)) | Water1 Ra ([3]; distance to water HSP of dilute condition (15.1, 20.4, 16.5)) | δD (dispersion solubility parameter) [3, 7] | δH (hydrogen bonding solubility parameter) [3, 7] | δP (polar solubility parameter) [3, 7] | R0 (intrinsic distance parameter) ([3]; experimentally rated solvent library, HSPiP, unit assumed) | Water1 RED (Ra/R0) ([3]; water HSP of dilute condition (15.1, 20.4, 16.5)) | solubility at 24 h [4] | kinetic radius, DOSY ([5]; D2O) | kinetic radius, DOSY ([5]; MeOD-d4) | Water contact angle (Water-contact angle test) | Ka (CHCl3), apparent association constant ([6]; CHCl3, dimeric model) | Ka (MeOH-H2O), apparent association constant ([6]; MeOH-H2O (legend: H2O), dimeric model)
c1cnccn1 [pyrazine] | freely soluble in water | – | – | – | – | – | – | – | – | – | – | – | – | – | –
c1cncc(-c2nc3c4cccnc4c4ncccc4c3o2)c1 [C11] | – | 8.32 nm | 10.2 MPa^0.5 | 14.9 MPa^0.5 | 18.3 (MPa)^0.5 | 15.9 (MPa)^0.5 | 7.0 (MPa)^0.5 | 11 MPa^0.5 | 1.4 | 13 mg/mL (≈ 43.6 mM) | 3.98 nm | 0.65 nm | 0 ° | 6(1) M^-1 | 850(50) M^-1
